ChEMBL document CHEMBL1129198, “Synthesis and antibacterial activity of lipophilic carbapenems with anti-MRSA activity” (Bioorg Med Chem Lett, 1996)
≈ marks a conversion by molar mass, not a printed value.

Key:
Enterococcus faecium = experiment: Antibacterial activity against vancomycin-resistant Enterococcus faecium 628016.; type: functional
Streptococcus pneumoniae = experiment: Antibacterial activity against penicillin-resistant Streptococcus pneumoniae 671319; type: functional
Staphylococcus aureus [1] = experiment: Antibacterial activity against methicillin-resistant Staphylococcus aureus 607004.; type: functional
Staphylococcus aureus [2] = experiment: Antibacterial activity against methicillin-sensitive Staphylococcus aureus 601055.; type: functional
Staphylococcus aureus [3] = experiment: Antibacterial activity against methicillin-resistant Staphylococcus aureus 601053.; type: functional
[4] = test system: Staphylococcus haemolyticus; experiment: Antibacterial activity against methicillin-resistant Staphylococcus haemolyticus 601117; type: functional
Enterococcus faecalis = experiment: Antibacterial activity against vancomycin-sensitive Enterococcus faecalis 683026.; type: functional
Staphylococcus aureus [5] = experiment: Antibacterial activity against methicillin-sensitive Staphylococcus aureus 601055.(grown in the presence of blood); type: functional
Staphylococcus aureus [6] = experiment: Compound was tested for its binding affinity against PBP2'' receptor in Staphylococcus aureus. Values taken from literature.; type: functional
Staphylococcus aureus [7] = experiment: Compound was tested for its binding affinity against PBP2' receptor in Staphylococcus aureus.; type: functional, organism-based
[8] = In vitro binding affinity towards PBP2'' of Staphylococcus aureus using [14C]benzylpenicillin as radioligand

Row | Structure (SMILES) | MIC (Enterococcus faecium) [µg/mL] | MIC (Streptococcus pneumoniae) [µg/mL] | MIC (Staphylococcus aureus [1]) [µg/mL] | MIC (Staphylococcus aureus [2]) [µg/mL] | MIC (Staphylococcus aureus [3]) [µg/mL] | MIC [4] [µg/mL] | MIC (Enterococcus faecalis) [µg/mL] | MIC (Staphylococcus aureus [5]) [µg/mL] | IC50 (Staphylococcus aureus [6]) [µg/mL] | IC50 (Staphylococcus aureus [7]) [µg/mL] | IC50 [8] [µg/mL]
1 | C[C@@H](O)[C@H]1C(=O)N2C(C(=O)O)=C(CSc3ccc4ccccc4n3)[C@H](C)[C@H]12 | 1 (≈ 2.6 µM) | 0.06 (≈ 0.156 µM) | 4 (≈ 10.4 µM) | 0.016 (≈ 0.0416 µM) | 0.13 (≈ 0.338 µM) | 0.5 (≈ 1.3 µM) | 4 (≈ 10.4 µM) | 0.03 |  |  | 
2 | C[C@@H](O)[C@H]1C(=O)N2C(C(=O)O)=C(SCCNC(=O)c3ccc4ccccc4c3)[C@H](C)[C@H]12 | 8 (≈ 18.2 µM) | 0.25 (≈ 0.568 µM) | 64 (≈ 145 µM) | 0.13 (≈ 0.295 µM) | 4 (≈ 9.08 µM) | 256 (≈ 581 µM) | 4 (≈ 9.08 µM) | 0.13 |  |  | 
3 | C[C@@H](O)[C@H]1C(=O)N2C(C(=O)[O-])=C(COc3ccc4cc(Cn5cc[n+](C)c5)ccc4c3)[C@H](C)[C@H]12 | 2 (≈ 4.33 µM) | 0.06 (≈ 0.13 µM) | 1 (≈ 2.17 µM) | 0.016 (≈ 0.0347 µM) | 0.5 (≈ 1.08 µM) | 2 (≈ 4.33 µM) | 2 (≈ 4.33 µM) | 0.016 |  |  | 
4 | C[C@@H](O)[C@H]1C(=O)N2C(C(=O)O)=C(COc3ccc4occc(=O)c4c3)[C@H](C)[C@H]12 | 2 (≈ 5.19 µM) | 0.03 (≈ 0.0778 µM) | 2 (≈ 5.19 µM) | 0.016 (≈ 0.0415 µM) | 0.25 (≈ 0.649 µM) | 2 (≈ 5.19 µM) | 2 (≈ 5.19 µM) | 0.016 |  |  | 
5 | C[C@@H](O)[C@H]1C(=O)N2C(C(=O)O)=C(SCc3ccc4ccccc4c3)[C@H](C)[C@H]12 | 8 (≈ 20.9 µM) | 0.06 (≈ 0.156 µM) | 1 (≈ 2.61 µM) | 0.06 (≈ 0.156 µM) | 1 (≈ 2.61 µM) | 2 (≈ 5.22 µM) | 2 (≈ 5.22 µM) | 0.03 | 2 (≈ 5.22 µM) | 9.5 (≈ 24.8 µM) | 9.5 (≈ 24.8 µM)
6 | C[C@@H](O)[C@H]1C(=O)N2C(C(=O)O)=C(COc3ccc4c(c3)CCC4)[C@H](C)[C@H]12 | 32 (≈ 89.5 µM) | 1 (≈ 2.8 µM) | 16 (≈ 44.8 µM) | 0.03 (≈ 0.0839 µM) | 1 (≈ 2.8 µM) | 16 (≈ 44.8 µM) | 64 (≈ 179 µM) | 8 |  |  | 
7 | C[C@@H](O)[C@H]1C(=O)N2C(C(=O)O)=C(Sc3ccc4ccccc4c3)[C@H](C)[C@H]12 | 8 (≈ 21.7 µM) | 2 (≈ 5.41 µM) | 8 (≈ 21.7 µM) | 0.03 (≈ 0.0812 µM) | 1 (≈ 2.71 µM) | 8 (≈ 21.7 µM) | 16 (≈ 43.3 µM) | 0.03 |  |  | 
8 | C[C@@H](O)[C@H]1C(=O)N2C(C(=O)O)=C(CSc3ccc4c(c3)OCCC4=O)[C@H](C)[C@H]12 | 0.5 (≈ 1.24 µM) | 0.03 (≈ 0.0744 µM) | 1 (≈ 2.48 µM) | 0.03 (≈ 0.0744 µM) | 1 (≈ 2.48 µM) | 1 (≈ 2.48 µM) | 1 (≈ 2.48 µM) | 0.008 |  |  | 
9 | C[C@@H](O)[C@H]1C(=O)N2C(C(=O)O)=C(CSc3ccc4c(c3)CC(=O)N4C)[C@H](C)[C@H]12 | 8 (≈ 19.9 µM) | 0.25 (≈ 0.621 µM) | 8 (≈ 19.9 µM) | 0.12 (≈ 0.298 µM) | 4 (≈ 9.94 µM) | 16 (≈ 39.8 µM) | 4 (≈ 9.94 µM) | 0.06 |  |  | 
10 | C[C@@H](O)[C@H]1C(=O)N2C(C(=O)O)=C(CSc3ccc4c(c3)CCC4=O)[C@H](C)[C@H]12 | 0.5 (≈ 1.29 µM) | 0.03 (≈ 0.0774 µM) | 2 (≈ 5.16 µM) | 0.016 (≈ 0.0413 µM) | 0.5 (≈ 1.29 µM) | 2 (≈ 5.16 µM) | 1 (≈ 2.58 µM) | 0.008 |  |  | 
11 | C[C@@H](O)[C@H]1C(=O)N2C(C(=O)[O-])=C(COc3ccc4nc(C[n+]5ccccc5)sc4c3)[C@H](C)[C@H]12 | 2 (≈ 4.3 µM) | 0.06 (≈ 0.129 µM) | 4 (≈ 8.59 µM) | 0.03 (≈ 0.0644 µM) | 0.25 (≈ 0.537 µM) | 2 (≈ 4.3 µM) | 0.5 (≈ 1.07 µM) | 0.016 |  |  | 
12 | C[C@@H](O)[C@H]1C(=O)N2C(C(=O)O)=C(CNC(=O)c3ccc4ccccc4c3)[C@H](C)[C@H]12 | 32 (≈ 81.1 µM) | 4 (≈ 10.1 µM) | 128 (≈ 325 µM) | 0.5 (≈ 1.27 µM) | 8 (≈ 20.3 µM) | 128 (≈ 325 µM) | 16 (≈ 40.6 µM) | 0.25 |  |  | 
13 | Cc1nc2ccc(SCC3=C(C(=O)O)N4C(=O)[C@H]([C@@H](C)O)[C@H]4[C@H]3C)cc2s1 | 8 (≈ 19.8 µM) | 0.06 (≈ 0.148 µM) | 4 (≈ 9.89 µM) | 0.03 (≈ 0.0742 µM) | 2 (≈ 4.94 µM) | 4 (≈ 9.89 µM) | 2 (≈ 4.94 µM) | 0.016 |  |  | 
14 | C[C@@H](O)[C@H]1C(=O)N2C(C(=O)O)=C(COc3cccc4c3C/C(=C\c3cccs3)C4=O)[C@H](C)[C@H]12 | 4 (≈ 8.59 µM) | 0.03 (≈ 0.0644 µM) | 2 (≈ 4.3 µM) | 0.008 (≈ 0.0172 µM) | 0.25 (≈ 0.537 µM) | 0.5 (≈ 1.07 µM) | 2 (≈ 4.3 µM) | 0.008 |  |  | 
15 | C[C@@H](O)[C@H]1C(=O)N2C(C(=O)O)=C(Sc3ccc(C#N)c4ccccc34)[C@H](C)[C@H]12 | 2 (≈ 5.07 µM) | 0.25 (≈ 0.634 µM) | 2 (≈ 5.07 µM) | 0.016 (≈ 0.0406 µM) | 0.5 (≈ 1.27 µM) | 1 (≈ 2.54 µM) | 8 (≈ 20.3 µM) | 0.016 |  |  | 
16 | C[C@@H](O)[C@H]1C(=O)N2C(C(=O)O)=C(COc3cccc4c3CCC4=O)[C@H](C)[C@H]12 | 2 (≈ 5.39 µM) | 0.06 (≈ 0.162 µM) | 4 (≈ 10.8 µM) | 0.016 (≈ 0.0431 µM) | 0.12 (≈ 0.323 µM) | 8 (≈ 21.5 µM) | 1 (≈ 2.69 µM) | 0.008 |  |  | 
17 | C[C@@H](O)[C@H]1C(=O)N2C(C(=O)O)=C(COc3ccc4occ(CN(C)C)c(=O)c4c3)[C@H](C)[C@H]12 | 2 (≈ 4.52 µM) | 0.12 (≈ 0.271 µM) | 4 (≈ 9.04 µM) | 0.06 (≈ 0.136 µM) | 0.5 (≈ 1.13 µM) | 2 (≈ 4.52 µM) | 0.5 (≈ 1.13 µM) | 0.016 |  |  | 
18 | C[C@@H](O)[C@H]1C(=O)N2C(C(=O)O)=C(COc3ccc4ccccc4c3)[C@H](C)[C@H]12 | 64 (≈ 174 µM) | 4 (≈ 10.9 µM) | 4 (≈ 10.9 µM) | 0.016 (≈ 0.0435 µM) | 0.25 (≈ 0.68 µM) | 2 (≈ 5.44 µM) | 128 (≈ 348 µM) | 32 |  |  | 
19 | C[C@@H](O)[C@H]1C(=O)N2C(C(=O)O)=C(Sc3cccc4ccccc34)[C@H](C)[C@H]12 | 32 (≈ 86.6 µM) | 1 (≈ 2.71 µM) | 8 (≈ 21.7 µM) | 0.06 (≈ 0.162 µM) | 1 (≈ 2.71 µM) | 8 (≈ 21.7 µM) | 16 (≈ 43.3 µM) | 0.06 |  |  | 
20 | C[C@@H](O)[C@H]1C(=O)N2C(C(=O)O)=C(COc3cccc4c3CCCC4=O)[C@H](C)[C@H]12 | 2 (≈ 5.19 µM) | 0.06 (≈ 0.156 µM) | 2 (≈ 5.19 µM) | 0.016 (≈ 0.0415 µM) | 0.25 (≈ 0.649 µM) | 4 (≈ 10.4 µM) | 2 (≈ 5.19 µM) | 0.008 |  |  | 
21 | C[C@@H](O)[C@H]1C(=O)N2C(C(=O)O)=C(SCCc3ccc4ccccc4c3)[C@H](C)[C@H]12 | 16 (≈ 40.3 µM) | 0.5 (≈ 1.26 µM) | 32 (≈ 80.5 µM) | 0.13 (≈ 0.327 µM) | 8 (≈ 20.1 µM) | 128 (≈ 322 µM) | 8 (≈ 20.1 µM) | 0.13 |  |  | 
22 | C[C@@H](O)[C@H]1C(=O)N2C(C(=O)O)=C(CSc3ccc4ccccc4c3)[C@H](C)[C@H]12 | 128 (≈ 334 µM) | 1 (≈ 2.61 µM) | 4 (≈ 10.4 µM) | 0.016 (≈ 0.0417 µM) | 0.5 (≈ 1.3 µM) | 2 (≈ 5.22 µM) | 128 (≈ 334 µM) | 32 |  |  | 
